Data from US12600732B2, “Bifunctional compounds for degrading BTK via ubiquitin proteosome pathway” (NURIX THERAPEUTICS, INC., priority 2019, dated 2026).
pEC50: −log10 of the molar value.

What was measured:
BTK [1] = biological target: T1, BTK (Homo sapiens, UniProt Q06187); assay: Cellular BTK degradation assay (Total BTK HTRF) in TMD8 cells; assay type: cell-based; parameters: endogenous in cells; host or cells: TMD8; conditions: treatment time 24 h
Method: Cellular BTK Degradation Assay
In Vitro Cellular Screening to Determine Potency as Measured by DC50 Values after Four Hour Incubation
(§1) BTK levels were determined using Cisbio Total-BTK HTRF (Homologous Time-Resolved Fluorescence) kit (63ADK064PEG) according to the manufacturer's protocol. Briefly, cells were incubated in 1× supplied lysis buffer for 30 minutes. In an opaque white low volume 96-well plate (Cisbio, 66PL96005), cell lysate was combined with two different specific BTK antibodies, one conjugated with Eu^3+-Cryptate FRET donor and one conjugated with d2 FRET acceptor. Assay controls include wells containing cell lysate with only the Eu^3+-Cryptate FRET donor antibody and wells containing both HTRF antibodies and lysis buffer without cells or control lysate provided by Cisbio. HTRF ratio was calculated as (acceptor signal at 665 nm/donor signal at 620 nm)×10^4. Background HTRF levels were determined from the control well containing the donor, but no acceptor, antibody. Background HTRF levels were subtracted from all samples. Readouts were reported as HTRF levels relative to HTRF levels of DMSO-treated cells. Four-parameter non-linear regressions were performed in GraphPad Prism 7.02 to obtain DC50 values.
Cellular BTK degradation was measured as above for four hours in TMD8 cells for two diastereomers of compound 130. DC50 and EC50 values are the concentration at which the response is halfway between the top and bottom of the fitted non-linear regression curve.
The present example evaluates whether potency of BTK CTMs shifts with longer timepoints. DC50 values are typically calculated with a 4-hour timepoint.

Mino cells = assay: Cell viability assay (CellTiter-Glo), Mino cells; assay type: cell-based; conditions: for pEC50: Homo sapiens; for pEC50 / EMAX (% viable cells): Mino cells, treatment time 72 h; for potency on cell viability compared with compound 130: MCL cell lines (Mino and Rec-1)
From the text: This example evaluates effects of CTM-mediated degradation on cell viability. […] Mino and Rec-1 are models of Mantle Cell Lymphoma, which is sensitive to IMiDs.

ITK = biological target: T2, ITK (Homo sapiens, UniProt Q08881); assay: ITK levels in MOLT4 and TMD8 cells (FIGS. 10-12); assay type: cell-based; conditions: for effect on ITK levels in cells: MOLT4 and TMD8 cells, FIGS. 11A and 11B
T2 construct: endogenous in cells; host or cells: MOLT4, TMD8
T2 sequence (Q08881 1-620): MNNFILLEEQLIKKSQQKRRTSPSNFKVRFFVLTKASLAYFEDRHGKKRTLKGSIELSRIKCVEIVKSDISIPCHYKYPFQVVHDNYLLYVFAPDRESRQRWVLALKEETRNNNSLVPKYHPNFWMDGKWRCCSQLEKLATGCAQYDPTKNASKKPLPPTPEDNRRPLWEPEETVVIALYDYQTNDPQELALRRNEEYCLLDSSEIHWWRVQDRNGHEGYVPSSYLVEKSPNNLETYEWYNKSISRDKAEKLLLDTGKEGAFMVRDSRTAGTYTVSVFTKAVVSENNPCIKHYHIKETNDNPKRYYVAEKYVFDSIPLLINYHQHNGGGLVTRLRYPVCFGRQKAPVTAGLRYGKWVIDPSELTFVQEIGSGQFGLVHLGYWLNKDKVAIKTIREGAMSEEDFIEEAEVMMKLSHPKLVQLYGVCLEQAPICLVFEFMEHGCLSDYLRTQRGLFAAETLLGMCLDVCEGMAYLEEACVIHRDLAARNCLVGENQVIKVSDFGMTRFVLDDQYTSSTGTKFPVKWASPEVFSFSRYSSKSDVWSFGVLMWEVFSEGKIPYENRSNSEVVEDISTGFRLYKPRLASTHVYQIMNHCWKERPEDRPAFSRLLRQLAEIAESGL
From the text: FIGS. 10A and 10B provide effects of compounds 73, 72, 121, and 44, and control compounds, on neo-substrate and ITK or BTK levels after twenty-four hours in MOLT4 cells (FIG. 10A) and TMD8 cells (FIG. 10B).
FIGS. 11A and 11B provide effects of compounds 44, 72, and 149, and control compounds, on CRBN neo-substrate and ITK levels in MOLT4 cells (FIG. 11A) and TMD8 cells (FIG. 11B).
FIG. 12 provides effects of compounds 130, 149, and 44 on ITK levels and IMiD activity.

BTK [2] = biological target: T1, BTK; assay: BTK degradation (Total BTK HTRF) in Mino cells (Mantle Cell Lymphoma model); assay type: cell-based; parameters: endogenous in cells; host or cells: TMD8, Mino, Rec-1; conditions: treatment time 4 h
Method: as §1
BTK Degradation (Total BTK HTRF) at Four Hours in Mino Cells
This example evaluates the potency of CTMs in a model of Mantle Cell Lymphoma (MCL). To evaluate potential therapeutic indications, BTK CTMs were assayed in models of Mantle Cell Lymphoma as with the TMD8 cells (ABC-DLBCL) above. Tested CTMs had similar potencies for BTK degradation in the MCL cell lines (Mino and Rec-1) and TMD8 cells.

primary human T cells = assay: T cell activation assay, IL-2 secretion (ELISA); assay type: cell-based; conditions: for IL-2 secretion compared to baseline (anti-CD3/anti-CD28 stimulation alone): primary human T cells
Procedure, shortened: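 Primary human T cells stimulated via TCR with anti-CD3/anti-CD28 in the presence of test compound. IL-2 secretion measured by ELISA; surface CD25 and CD69 by flow cytometry. Values are fold-change versus anti-CD3/anti-CD28 stimulation without compound.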

BTK [3] = biological target: T3, BTK (Canis lupus familiaris, UniProt A0A8I3P3Z9); assay: PD data from dog (BTK degradation); assay type: in vivo; conditions: blood
T3 construct: from tissue
From the text: In this example, compounds were profiled for activity in non-mouse species.

Ikaros = biological target: T4, Ikaros (Homo sapiens, UniProt Q13422+Q96SW2); assay: Ikaros degradation in Mantle Cell Lymphoma lines (flow cytometry); assay type: cell-based; conditions: treatment time 24 h
T4 construct: endogenous in cells; host or cells: Mino, Rec-1
From the text: Ikaros and Aiolos Degradation in Mantle Cell Lymphoma Lines (Ikaros and Aiolos Flow Cytometry)
This example evaluates the IMiD activity of CTMs in cellular models of Mantle Cell Lymphoma (MCL). […] These assays are to determine potency of CTMs for degrading IMiD neo-substrates in cellular models of MCL and to generate data to inform efficacy studies in MCL xenografts.

[4] = after twenty-four hours, TMD8 and/or MOLT4 cells, FIGS. 10A and 10B
[5] = 1.4 nM, fold-change of response relative to baseline
[6] = 37 nM, fold-change of response relative to baseline
[7] = 333 nM, fold-change of response relative to baseline (stimulation without compound)

T1 sequence (Q06187 whole entry): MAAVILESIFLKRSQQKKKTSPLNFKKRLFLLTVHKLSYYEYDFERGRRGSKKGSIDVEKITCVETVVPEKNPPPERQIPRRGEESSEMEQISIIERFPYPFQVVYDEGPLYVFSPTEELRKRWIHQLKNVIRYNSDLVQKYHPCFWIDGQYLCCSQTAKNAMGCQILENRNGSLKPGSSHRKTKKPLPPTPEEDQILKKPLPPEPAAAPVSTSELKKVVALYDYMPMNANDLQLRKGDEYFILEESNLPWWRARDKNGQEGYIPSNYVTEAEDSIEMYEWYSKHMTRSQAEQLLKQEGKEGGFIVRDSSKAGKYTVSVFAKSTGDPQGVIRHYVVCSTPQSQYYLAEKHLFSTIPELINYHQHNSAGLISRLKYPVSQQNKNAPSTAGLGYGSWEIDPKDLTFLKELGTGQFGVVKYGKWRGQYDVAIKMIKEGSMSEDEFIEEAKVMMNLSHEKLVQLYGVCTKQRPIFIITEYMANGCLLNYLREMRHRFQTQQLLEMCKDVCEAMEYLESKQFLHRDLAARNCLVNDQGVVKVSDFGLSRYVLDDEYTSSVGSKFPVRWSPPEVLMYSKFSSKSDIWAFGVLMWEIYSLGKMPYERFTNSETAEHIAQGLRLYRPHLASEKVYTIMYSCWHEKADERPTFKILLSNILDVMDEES
T3 sequence (A0A8I3P3Z9 1-664): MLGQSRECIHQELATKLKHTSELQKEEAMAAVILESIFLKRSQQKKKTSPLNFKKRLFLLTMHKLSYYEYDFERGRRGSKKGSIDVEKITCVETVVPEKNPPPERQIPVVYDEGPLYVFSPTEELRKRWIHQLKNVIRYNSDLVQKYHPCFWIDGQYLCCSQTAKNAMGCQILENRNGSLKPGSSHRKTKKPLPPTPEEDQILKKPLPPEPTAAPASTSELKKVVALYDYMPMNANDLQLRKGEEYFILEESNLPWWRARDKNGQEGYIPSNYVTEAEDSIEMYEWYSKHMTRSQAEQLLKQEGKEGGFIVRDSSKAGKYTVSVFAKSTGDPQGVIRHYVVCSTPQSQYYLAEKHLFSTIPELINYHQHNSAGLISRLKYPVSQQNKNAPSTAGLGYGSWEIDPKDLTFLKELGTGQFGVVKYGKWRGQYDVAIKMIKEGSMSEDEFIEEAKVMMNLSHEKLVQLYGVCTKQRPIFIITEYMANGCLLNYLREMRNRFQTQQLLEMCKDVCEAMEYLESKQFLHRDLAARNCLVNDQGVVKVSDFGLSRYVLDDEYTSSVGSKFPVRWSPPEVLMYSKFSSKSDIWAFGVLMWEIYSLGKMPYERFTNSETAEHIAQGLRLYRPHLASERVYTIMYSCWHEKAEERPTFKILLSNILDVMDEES
T4 sequence (Q13422 whole entry): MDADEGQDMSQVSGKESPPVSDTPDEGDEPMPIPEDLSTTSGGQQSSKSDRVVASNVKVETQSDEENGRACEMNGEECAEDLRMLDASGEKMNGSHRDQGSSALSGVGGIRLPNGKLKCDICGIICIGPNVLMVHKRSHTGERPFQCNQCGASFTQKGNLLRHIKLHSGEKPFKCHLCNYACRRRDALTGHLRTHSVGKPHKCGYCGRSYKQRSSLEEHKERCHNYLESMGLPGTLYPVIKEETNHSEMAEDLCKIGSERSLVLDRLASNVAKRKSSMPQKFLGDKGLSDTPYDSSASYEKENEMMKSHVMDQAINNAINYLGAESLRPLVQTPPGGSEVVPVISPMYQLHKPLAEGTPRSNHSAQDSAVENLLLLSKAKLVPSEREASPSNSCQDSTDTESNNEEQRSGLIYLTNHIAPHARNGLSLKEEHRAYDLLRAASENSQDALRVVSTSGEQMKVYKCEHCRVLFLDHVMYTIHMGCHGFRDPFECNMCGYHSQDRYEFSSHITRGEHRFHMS
T4 sequence (Q96SW2 whole entry): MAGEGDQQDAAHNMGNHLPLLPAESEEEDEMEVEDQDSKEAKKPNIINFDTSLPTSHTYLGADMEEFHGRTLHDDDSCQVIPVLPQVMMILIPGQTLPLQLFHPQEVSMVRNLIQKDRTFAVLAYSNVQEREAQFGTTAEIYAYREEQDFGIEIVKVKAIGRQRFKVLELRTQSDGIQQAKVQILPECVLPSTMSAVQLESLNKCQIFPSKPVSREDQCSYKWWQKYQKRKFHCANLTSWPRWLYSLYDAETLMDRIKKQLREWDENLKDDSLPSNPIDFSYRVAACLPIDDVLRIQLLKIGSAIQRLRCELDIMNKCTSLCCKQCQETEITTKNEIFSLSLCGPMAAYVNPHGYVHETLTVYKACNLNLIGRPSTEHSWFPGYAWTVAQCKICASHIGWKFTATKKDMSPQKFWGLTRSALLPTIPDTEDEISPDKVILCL
T4 sequence (Q16531 whole entry partner): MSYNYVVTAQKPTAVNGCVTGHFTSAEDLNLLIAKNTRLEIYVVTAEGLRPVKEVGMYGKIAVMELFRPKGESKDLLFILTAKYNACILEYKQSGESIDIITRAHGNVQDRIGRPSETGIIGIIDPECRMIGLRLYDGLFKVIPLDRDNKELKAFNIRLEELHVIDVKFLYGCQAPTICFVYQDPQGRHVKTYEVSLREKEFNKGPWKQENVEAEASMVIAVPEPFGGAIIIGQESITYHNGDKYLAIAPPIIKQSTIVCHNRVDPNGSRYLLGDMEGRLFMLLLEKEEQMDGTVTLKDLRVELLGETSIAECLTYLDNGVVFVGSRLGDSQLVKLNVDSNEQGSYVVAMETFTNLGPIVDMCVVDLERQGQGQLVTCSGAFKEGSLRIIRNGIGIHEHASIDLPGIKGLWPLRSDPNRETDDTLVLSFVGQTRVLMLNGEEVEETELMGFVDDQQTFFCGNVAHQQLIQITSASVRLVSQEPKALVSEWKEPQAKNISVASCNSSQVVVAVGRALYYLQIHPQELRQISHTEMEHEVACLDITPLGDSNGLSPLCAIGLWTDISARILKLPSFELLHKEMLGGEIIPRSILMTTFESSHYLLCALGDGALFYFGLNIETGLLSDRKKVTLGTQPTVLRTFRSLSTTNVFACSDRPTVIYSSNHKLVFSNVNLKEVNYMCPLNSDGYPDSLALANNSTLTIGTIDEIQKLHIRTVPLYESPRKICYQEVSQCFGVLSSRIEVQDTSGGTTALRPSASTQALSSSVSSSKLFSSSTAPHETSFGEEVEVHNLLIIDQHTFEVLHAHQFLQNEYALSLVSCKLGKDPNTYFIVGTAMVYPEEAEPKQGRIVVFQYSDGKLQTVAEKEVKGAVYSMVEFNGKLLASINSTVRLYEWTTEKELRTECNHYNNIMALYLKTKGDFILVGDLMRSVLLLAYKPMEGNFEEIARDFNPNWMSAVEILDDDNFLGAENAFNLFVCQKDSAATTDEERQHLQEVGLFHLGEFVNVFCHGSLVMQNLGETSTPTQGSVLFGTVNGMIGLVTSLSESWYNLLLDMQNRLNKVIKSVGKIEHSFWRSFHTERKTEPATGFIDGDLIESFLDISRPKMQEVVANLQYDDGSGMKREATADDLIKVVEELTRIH

**Q.** With `CN1CCN([C@@H]2CCCN(c3cnc(C(N)=O)c(Nc4ccc(C5CCN(C[C@H]6CCN(c7ccc8c(c7)C(=O)N(C7CCC(=O)NC7=O)C8=O)C6)CC5)cc4)n3)C2)C1=O` (stereo partly shown) [Compound 44] as the compound, how does the DC50 (BTK [1]) read?
**A.** 0.36 nM

**Q.** What about the pEC50 (Mino cells) of the same compound?
**A.** 7.93

**Q.** What about the “potency on cell viability compared with compound 130” value (Mino cells) of the same compound?
**A.** more potent

**Q.** And the “EMAX (% viable cells)” value (Mino cells)?
**A.** 61%

**Q.** What about the “effect on ITK levels in cells” value (ITK) of the same compound?
**A.** some effect

**Q.** What about the “effects on ITK levels” value (ITK; [4]) of the same compound?
**A.** some effects

**Q.** And the DC50 (BTK [2])?
**A.** 0.56 nM

**Q.** And the “IL-2 Secretion Anti-CD3/Anti-CD28 Stimulation” value (primary human T cells; [5])?
**A.** 1.43

**Q.** And the “IL-2 Secretion Anti-CD3/Anti-CD28 Stimulation” value (primary human T cells; [6])?
**A.** 3.49

**Q.** What about the “IL-2 Secretion Anti-CD3/Anti-CD28 Stimulation” value (primary human T cells; [7]) of the same compound?
**A.** 3.75

**Q.** What about the “IL-2 secretion compared to baseline (anti-CD3/anti-CD28 stimulation alone)” value (primary human T cells) of the same compound?
**A.** increased IL-2 secretion but not to the level observed with IMiDs

**Q.** What about the “% BTK Remaining” value (BTK [3]; 10 mg/kg PO, 2 h) of the same compound?
**A.** 88%

**Q.** And the “% BTK Remaining” value (BTK [3]; 10 mg/kg PO, 4 h)?
**A.** 56%

**Q.** What about the “% BTK Remaining” value (BTK [3]; 10 mg/kg PO, 8 h) of the same compound?
**A.** 35%

**Q.** And the “% BTK Remaining” value (BTK [3]; 10 mg/kg PO, 24 h)?
**A.** 19%

**Q.** What about the “% BTK Remaining” value (BTK [3]; 30 mg/kg PO, 2 h) of the same compound?
**A.** 87%

**Q.** What about the “% BTK Remaining” value (BTK [3]; 30 mg/kg PO, 4 h) of the same compound?
**A.** 58%

**Q.** What about the “% BTK Remaining” value (BTK [3]; 30 mg/kg PO, 8 h) of the same compound?
**A.** 28%

**Q.** And the “% BTK Remaining” value (BTK [3]; 30 mg/kg PO, 24 h)?
**A.** 14%

**Q.** What about the DC50 (Ikaros; Mino cells) of the same compound?
**A.** 1400 nM

**Q.** And the DC50 (Ikaros; Rec-1 cells)?
**A.** 72 nM

**Q.** How did the DC50 (BTK [1]) turn out when `CN1CCN([C@@H]2CCCN(c3cnc(C(N)=O)c(Nc4ccc(C5CCN(CC6CCN(c7ccc8c(=O)n(C9CCC(=O)NC9=O)ccc8c7)CC6)CC5)cc4)n3)C2)C1=O` (stereo partly shown) [Compound 72] was run?
**A.** 0.21 nM

**Q.** What about the “effects on ITK levels” value (ITK; FIG. 12) of the same compound?
**A.** slight effects

**Q.** What about the “effects on ITK levels” value (ITK; [4]) of the same compound?
**A.** does affect

**Q.** Which DC50 (BTK [1]) does the source give for `CN1CCN([C@@H]2CCCN(c3cnc(C(N)=O)c(Nc4ccc(C5CCN(CC6CCN(c7ccc(-c8nn(C9CCC(=O)NC9=O)c(=O)n8C)cc7)CC6)CC5)cc4)n3)C2)C1=O` (stereo partly shown) [Compound 121] here?
**A.** 1 nM

**Q.** And the “effects on ITK levels” value (ITK; [4])?
**A.** minimal effects

**Q.** With `CN1CCN([C@H]2CCCN(c3cnc(C(N)=O)c(Nc4ccc(C5CCN(CC6CCN(c7ccc(C(=O)NC8CCC(=O)NC8=O)nc7)CC6)CC5)cc4)n3)C2)C1=O` (stereo partly shown) [Compound 130] as the compound, how does the pEC50 (Mino cells) read?
**A.** 6.75

**Q.** And the “EMAX (% viable cells)” value (Mino cells)?
**A.** 78%

**Q.** And the “effects on ITK levels” value (ITK; FIG. 12)?
**A.** slight effects

**Q.** What about the DC50 (BTK [2]) of the same compound?
**A.** 0.58 nM

**Q.** What about the “IL-2 Secretion Anti-CD3/Anti-CD28 Stimulation” value (primary human T cells; [5]) of the same compound?
**A.** 1.19

**Q.** And the “IL-2 Secretion Anti-CD3/Anti-CD28 Stimulation” value (primary human T cells; [6])?
**A.** 1.42

**Q.** What about the “IL-2 Secretion Anti-CD3/Anti-CD28 Stimulation” value (primary human T cells; [7]) of the same compound?
**A.** 2.02

**Q.** What about the DC50 (Ikaros; Mino cells) of the same compound?
**A.** > 2000 nM

**Q.** And the DC50 (Ikaros; Rec-1 cells)?
**A.** > 2000 nM

**Q.** `NC(=O)c1ncc(N2CCCCC2)nc1Nc1ccc(C2CCN(C[C@@H]3CCN(c4ccc5c(c4)C(=O)N(C4CCC(=O)NC4=O)C5=O)C3)CC2)cc1` (stereo partly shown) [Compound 149] was tested. Which DC50 (BTK [1]) did it give?
**A.** 2.3 nM

**Q.** And the pEC50 (Mino cells)?
**A.** 8.47

**Q.** What about the “potency on cell viability compared with compound 130” value (Mino cells) of the same compound?
**A.** more potent

**Q.** What about the “EMAX (% viable cells)” value (Mino cells) of the same compound?
**A.** 50%

**Q.** What about the “effect on ITK levels in cells” value (ITK) of the same compound?
**A.** some effect

**Q.** And the DC50 (BTK [2])?
**A.** 5.9 nM

**Q.** And the “IL-2 Secretion Anti-CD3/Anti-CD28 Stimulation” value (primary human T cells; [5])?
**A.** 1.86

**Q.** What about the “IL-2 Secretion Anti-CD3/Anti-CD28 Stimulation” value (primary human T cells; [6]) of the same compound?
**A.** 3.63

**Q.** What about the “IL-2 Secretion Anti-CD3/Anti-CD28 Stimulation” value (primary human T cells; [7]) of the same compound?
**A.** 4.24

**Q.** And the “IL-2 secretion compared to baseline (anti-CD3/anti-CD28 stimulation alone)” value (primary human T cells)?
**A.** increased IL-2 secretion but not to the level observed with IMiDs

**Q.** And the “% BTK Remaining” value (BTK [3]; 1 mg/kg IV, 2 h)?
**A.** 43%

**Q.** And the “% BTK Remaining” value (BTK [3]; 1 mg/kg IV, 4 h)?
**A.** 22%

**Q.** And the “% BTK Remaining” value (BTK [3]; 1 mg/kg IV, 8 h)?
**A.** 10%

**Q.** What about the “% BTK Remaining” value (BTK [3]; 1 mg/kg IV, 24 h) of the same compound?
**A.** 11%

**Q.** And the “% BTK Remaining” value (BTK [3]; 10 mg/kg PO, 2 h)?
**A.** 61%

**Q.** What about the “% BTK Remaining” value (BTK [3]; 10 mg/kg PO, 4 h) of the same compound?
**A.** 47%

**Q.** What about the “% BTK Remaining” value (BTK [3]; 10 mg/kg PO, 8 h) of the same compound?
**A.** 29%

**Q.** What about the “% BTK Remaining” value (BTK [3]; 10 mg/kg PO, 24 h) of the same compound?
**A.** 17%

**Q.** And the DC50 (Ikaros; Mino cells)?
**A.** 130 nM

**Q.** And the DC50 (Ikaros; Rec-1 cells)?
**A.** 61 nM
